Series [1] can be described thus: Molar enthalpy of transition or fusion. The settings on record: Crystal; DSC.
For series [2] the following is noted: Crystal; DSC.

± gives the expanded uncertainty stated by the source.

As to `CC#C[C@]1(O)CC[C@H]2[C@@H]3CCC4=CC(=O)CCC4=C3[C@@H](c3ccc(N(C)C)cc3)C[C@@]21C` [mifepristone], the “Molar enthalpy of transition or fusion” value in series [1] was found to be 4.64 ± 0.21 kcal/mol. Moreover, the Triple point temperature in series [2] came to 465.45 ± 0.81 K.

These data come from the NIST ThermoML archive (doi:10.1021/acs.jced.8b01062).
